Test results published in patent US20180133186A1, “PREVENTATIVE TREATMENT OF ALZHEIMER'S DISEASE” (priority 2016, published 2018).
Like-named read-outs stand apart in the source and are kept apart here.

How the values were obtained:
[1] = system: melanoma; details: cited from earlier work
[2] = system: CVN-AD mice; assay type: in vivo
Procedure: (§1) This example was carried out as schematically illustrated in FIG. 1. […] Brains from each mouse were harvested at the end the third day of the rotorod procedure. Brain tissue lysates from each mouse in the experiment were used to determine the levels of Abeta 40 and Abeta 42 peptides and brain metabolites.

[3] = system: CVN-AD mice; test: 2-day radial arm water maze in CVN-AD mice; assay type: in vivo, mouse; details: n=12
Source text: Alzheimer's disease (CVN-AD) mice are modified non-human warm-blooded vertebrate animals in which a biologically active human APP polypeptide is expressed, and in which function of its inducible Nitric Oxide Synthase (iNOS) protein is reduced as compared to a non-modified animal. CVN-AD mice are described in U.S. Patent Publication No. 20090081128, the contents of which are incorporated by reference in their entirety. […] (2) Aβ deposition around blood vessels resembling pathology observed in humans with cerebral amyloid angiopathy ([…].); (3) hyperphosphorylated and aggregated mouse tau; neuronal loss; worsening behavioral deficits with time (Colton, C.); and (4) significant hippocampal and fornix volume loss (Badea, A.). […] This age in the CVN-AD mouse model is considered as representative of early Alzheimer's disease in humans (Colton, C.). The number of mice in each group is 12.

[4] = molecular target: T1, ornithine decarboxylase (Mus musculus, UniProt P00860); test: Whole brain lysate metabolite levels related to ornithine decarboxylase activity; assay type: in vivo
T1 construct: from tissue; host or cells: brain of CVN-AD mice (in vivo dosing; whole brain lysates analysed for metabolites)
T1 sequence (P00860 1-461): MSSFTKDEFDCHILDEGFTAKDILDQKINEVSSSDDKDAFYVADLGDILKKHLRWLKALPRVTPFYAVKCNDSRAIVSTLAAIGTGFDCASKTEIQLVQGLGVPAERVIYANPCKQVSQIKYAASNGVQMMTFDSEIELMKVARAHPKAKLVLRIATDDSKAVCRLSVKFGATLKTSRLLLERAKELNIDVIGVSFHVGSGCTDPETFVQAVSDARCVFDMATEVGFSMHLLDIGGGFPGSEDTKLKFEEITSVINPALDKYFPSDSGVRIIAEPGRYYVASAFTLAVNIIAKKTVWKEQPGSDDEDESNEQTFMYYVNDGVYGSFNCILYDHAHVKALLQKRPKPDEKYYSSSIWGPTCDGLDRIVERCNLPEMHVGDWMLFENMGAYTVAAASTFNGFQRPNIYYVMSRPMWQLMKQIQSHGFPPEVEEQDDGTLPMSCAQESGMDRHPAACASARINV
Procedure: as §1
Humans with Alzheimer's disease show elevation of these metabolites (Inoue K).

[5] = system: CVN-AD mice
[6] = system: humans; details: cited from earlier work
[7] = system: Normal volunteers; details: cited from earlier work
[8] = system: Metastatic liver; details: cited from earlier work
[9] = system: melanoma; details: 6 g/m^2/d oral escalated to 12 g/m^2/d, n = 24; cited from earlier work
[10] = system: Trypanosoma brucei gambiense; details: cited from earlier work; for effective dosage for successful treatment of trypanosomiasis: humans
[11] = system: Abeta peptides; test: Abeta 40 and Abeta 42 peptides in whole brain lysates of CVN-AD mice; assay type: in vivo, mouse; details: DFMO 0.3 or 30 mg/kg vs water, n=12
Source text: The average levels of soluble Abeta 42 peptide and soluble Abeta40 peptide (plus and minus the standard error of the mean) measured in whole brain lysates are shown in FIG. 3B. […] The number of mice for each group was 12.

[12] = system: humans; test: Predicted dosage for Alzheimer's Clinical Trial; assay type: in vivo, human; details: 6 mos-4 yrs
[13] = 2 g/m^2/d oral, n = 16, 75 days
[14] = 30 mg/kg, average +/- sem, n = 11-12 mice
[15] = oral delivery [Lipton A] [Pasic T R]
[16] = 14. g/m^2/d (400 mg/kg/day) IV, n = 1055
[17] = 14.8 g/m^2/d (400 mg/kg/day) ORAL, n = 25

**Q.** What does the source list for NCCC[C@](N)(C(=O)O)C(F)F [DFMO, alpha-difluoromethylornithine]?
**A.** Ototoxicity [1, 13]: Ototoxicity (10%); Ototoxicity trend with dose and duration [1, 13]: Increasing with dose; dose with mild ototoxicity ([1]; oral delivery [Croghan M K]): 2000 mg/m^2/d; Dose limiting events ([2]; 0.3 mg/kg, 14 wks): none; On target in brain ([2]; 0.3 mg/kg, 14 wks): yes; Dose limiting events ([2]; 10 mg/kg, 14 wks): none; On target in brain ([2]; 10 mg/kg, 14 wks (data not shown)): yes (data not; Dose limiting events ([2]; 30 mg/kg, 14 wks): none; On target in brain ([2]; 30 mg/kg, 14 wks): yes; adverse events in DFMO treated CVN-AD mice ([2]; dose range 0.9 to 90 mg/m2/d): No observable adverse events; average number of errors in finding an escape platform after 2 days of trials, radial arm water maze ([3]; 0.3 mg/kg (0.9 mg/m^2) oral gavage 3x/wk 14 weeks vs water only): statistically significantly decreased; average number of errors in finding an escape platform after 2 days of trials, radial arm water maze ([3]; 30 mg/kg (92.5 mg/m^2) oral gavage 3x/wk 14 weeks vs water only): more so; Observed difference, putrescine (p; significantly decreased with DFMO-treatment) ([4]; 30 mg/kg vs water only): p < 0.05; Observed difference, spermidine (p; significantly decreased with DFMO-treatment) ([4]; 30 mg/kg vs water only): p < 0.01; putrescine, CVN-AD brain lysate levels DFMO-treated [4, 14]: 0.49 ± 0.02 µM/g; spermidine, CVN-AD brain lysate levels DFMO-treated [4, 14]: 12.2 ± 0.63 µM/g; brain levels of putrescine compared to untreated CVN-AD mice ([4]; DFMO treatment): significantly lower; brain levels of spermidine compared to untreated CVN-AD mice ([4]; DFMO treatment): significantly lower; brain levels of spermine compared to untreated CVN-AD mice ([4]; DFMO treatment): significantly lower; average number of seconds on the rotorod over 3 days of testing ([5]; DFMO 0.3 or 30 mg/kg vs water only): No change; toxic effect on motor skills ([5]; at the doses used (0.3, 30 mg/kg)): no toxic effect; Brain-based toxicity: deaths ([6]; 14. g/m^2/d IV, n = 1055): 15 deaths; Brain-based toxicity: seizures ([6]; 14. g/m^2/d IV, n = 1055): (4%); Other toxicity detected: abdominal pain ([6]; 14. g/m^2/d IV, n = 1055): pain (37.7%),; Other toxicity detected: headache ([6]; 14. g/m^2/d IV, n = 1055): (31.2%),; Other toxicity detected: diarrhea ([6]; 14.8 g/m^2/d ORAL, n = 25): (58.3%); Other toxicity detected: headache ([6]; 14.8 g/m^2/d ORAL, n = 25): (16.7%),; Other toxicity detected: vomiting/diarrhea ([7]; 0.5-3 g/m^2/d oral, n = 13): Not study limiting; dose above which ototoxicity is dose dependent, increasing toxicity ([7]; 0.5-3 g/m^2/d oral, n = 13): (12%); >1 g/m^2/d is; Ototoxicity ([7]; 0.5 g/m^2/d oral, same as placebo (12%)): (9%) same as placebo; dose with mild reversible ototoxicity (no adverse event grade assigned) [7, 15]: 1000 mg/m^2/d; Other toxicity detected, subjects affected ([8]; 0.5 and 1 g/m^2/d IV): 0/3) at 0.5 and 1 g/m^2/d; Ototoxicity, subjects affected ([8]; 0.5 and 1 g/m^2/d IV): Ototoxicity (0/3) at 0.5; Other toxicity detected, subjects affected ([8]; 2 g/m^2/d IV): (0/3) at 2 g/m^2/d; Ototoxicity, subjects affected ([8]; 2 g/m^2/d IV): Ototoxicity (3/3) at 2 g/m^2/d; dose with dose limiting ototoxicity [8, 15]: 1500 mg/m^2/d; Other toxicity detected (low grade) [9]: 67% (low grade); Ototoxicity, % of treated subjects [9]: Ototoxicity in 50% of; Ototoxicity, subjects affected [9]: (12/24); Efficacy: clearance of trypanosomes [10, 16]: Prolonged clearance; Efficacy: confirmed cured [10, 16]: 44% confirmed; Efficacy: probable cure [10, 16]: cured, 45%; Efficacy: clearance of brain trypanosomes [10, 17]: Partial clearance of; Efficacy: death [10, 17]: weakness). No; Efficacy: signs/symptoms of trypanosomiasis [10, 17]: Reduced; effective dosage for successful treatment of trypanosomiasis ([10]; intravenous (IV)): 14800 mg/m2/d; effective dosage for successful treatment of trypanosomiasis ([10]; orally): 14800 mg/m2/d; average level of insoluble Abeta40 peptide in whole brain lysates [11]: No significant change; average level of insoluble Abeta 42 peptide in whole brain lysates [11]: No significant change; soluble Abeta 40 levels in whole brain lysates [11]: statistically significantly decreased; Predicted Dose limiting effects ([12]; estimated human dose 36 mg/m^2 daily): none; Predicted Dose limiting effects ([12]; estimated human dose 109 mg/m^2 daily): none; Predicted Dose limiting effects ([12]; estimated human dose 328 mg/m^2 daily): none
